Experimental data taken from patent publication US6858647B2, “Retinoid compounds suited for antibacterial applications” (Galderma Research & Development S.N.C., priority 2000, dated 2005).
Converted amounts (≈) assume the structure as drawn. Like-named read-outs stand apart in the source and are kept apart here.

How the values were obtained:
[1] = tested on: Staphylococcus aureus CIP52.1; experiment: Minimum inhibitory concentration (MIC), NCCLS dilution antimicrobial susceptibility test; assay type: cell-based; conditions: mean of at least three tests, read-out: MIC RESULTS MEAN
From the text: The bacterium Staphylococcus aureus CIP52.1 may be used in order to determine for each test compound the minimum inhibitory concentration for the bacterium, or MIC, expressed in μM.
The technique employed to determine the minimum inhibitory concentration or MIC was that described in the publication entitled “National committee for clinical laboratory standards” Vol. 13, No. 25, December 1993; Methods for dilution antimicrobial susceptibility tests for bacteria that grow aerobically-third edition, approved standard”. This minimum inhibitory concentration gives an indication as to the bacteriostatic effect of the test compounds, i.e., the capacity of these compounds to stop the proliferation of the bacterium.
Each compound of the invention was tested at least three times. The average of the test results was calculated, along with the standard deviation. The reference compound used was gentamycin.
The technique employed to determine the MIC values was the same as that described in Example 1.
(§1) Each compound of the invention and each comparative example taken from the Pierre Fabre patent application No. FR-2,736,548 was tested at least three times. The mean of the test results was calculated, along with the standard deviation. The reference compound used was gentamycin.

[2] = tested on: bacterium Staphylococcus aureus; experiment: Minimum bactericidal concentration (MBC); assay type: cell-based; conditions: Table IV, Example 2, mean of at least three tests, bactericidal activity (MBC)
Procedure: The technique employed to determine the minimum bactericidal concentration, or MBC, was that described in Bactéricidie, P. Courvalin et al., Editions Maloine, 1990, chapter 7, page 335.
This minimum bactericidal concentration provides an indication as to the bactericidal effect of the test compounds, i.e., the capacity of these compounds to kill the bacterium.
as §1

RAR receptor = experiment: Biological activity of RAR receptor antagonist / agonist type; conditions: stated in words, no test described
[3] = Table II, Example 1, bacteriostatic effect
[4] = Table III, Example 2, comparison with retinaldehydes
[5] = Staphylococcus aureus, CIP52, Table II, Example 1, bacteriostatic effect
[6] = Staphylococcus aureus, CIP52, Table III, Example 2, comparison with retinaldehydes

Row | Compound | MIC [1, 3] [µM] | biological activity at RAR receptor (antagonist or agonist type) (RAR receptor) | MIC [1, 5] [µM] | further results
1 | gentamycin [reference compound] | 0.11 | – | – | MIC [1, 4]: 0.14 µM; MIC [2]: 0.26 µM
2 | O=C(O)c1ccc(-c2ccc3cc(O)c(C45CC6CC(CC(C6)C4)C5)cc3c2)cc1 [Compound 16] | 2.50 (≈ 0.996 µg/mL) | RAR receptor agonist type | – | –
3 | CC1(C)CCC(C)(C)c2cc(-c3cc(-c4ccc(C(=O)O)cc4)ccc3-c3ccc(O)cc3)ccc21 [Compound 9, 4-Hydroxy-2′(5,5,8,8-tetramethyl-5,6,7,8-tetrahydronaphthalen-2-yl) [1,1′,4′,1″]terphenyl-4″-carboxylic acid] | 1.66 (≈ 0.791 µg/mL) | RAR receptor agonist type | – | –
4 | CC1(C)CCSc2ccc(-c3cc(-c4ccc(C(=O)O)cc4)ccc3-c3ccccc3)cc21 [Compound 13, 2′-(4,4-Dimethylthiochroman-6-yl) [1,1′,4′,1″]terphenyl-4″-carboxylic acid] | 2.08 (≈ 0.937 µg/mL) | RAR receptor agonist type | – | –
5 | COc1cccc(-c2ccc(C)cc2)c1C=CC#Cc1ccc(C(=O)O)cc1 [Compound 32, 4-[4-(3-Methoxy-4′-methylbiphenyl-2-yl)but-3-en-1-ynyl]benzoic acid] | – | RAR receptor antagonist type | 3.33 (≈ 1.23 µg/mL) | –
6 | CC1=C(/C=C/C(C)=C\C=C\C(C)=C\C=O)C(C)(C)CCC1 [Comparative Example 2, 9-cis-retinaldehyde, reference compound] | – | – | – | MIC [1, 4]: 11.52 µM (≈ 3.28 µg/mL); MIC [2]: 16.63 µM (≈ 4.73 µg/mL)
7 | CC1=C(/C=C/C(C)=C/C=C/C(C)=C\C=O)C(C)(C)CCC1 [Comparative Example 3, 13-cis-retinaldehyde, reference compound] | – | – | – | MIC [1, 4]: 7.64 µM (≈ 2.17 µg/mL); MIC [2]: 15.97 µM (≈ 4.54 µg/mL)
8 | COc1cccc(C=CC#Cc2ccc(C(=O)O)cc2)c1-c1ccc(C)cc1 [Compound 3, 4-[4-(6-Methoxy-4′-methylbiphenyl-2-yl)but-3-en-1-ynyl]benzoic acid] | – | RAR receptor antagonist type | 1.04 (≈ 0.383 µg/mL) | –
9 | CC1=C(/C=C/C(C)=C/C=C/C(C)=C/C=O)C(C)(C)CCC1 [Comparative Example 1, all-trans-retinaldehyde, reference compound] | – | – | – | MIC [1, 4]: 11.64 µM (≈ 3.31 µg/mL); MIC [2]: 26.33 µM (≈ 7.49 µg/mL)
10 | O=C(O)c1ccc2cc(-c3cc(Br)c(O)c(C45CC6CC(CC(C6)C4)C5)c3)ccc2c1 [Compound 11, 6-(3-Adamantan-1-yl-5-bromo-4-hydroxyphenyl)-naphthalene-2-carboxylic acid] | – | RAR receptor agonist type | 2.08 (≈ 0.993 µg/mL) | –
11 | CC1(C)CCC(C)(C)c2cc(-c3cc(-c4ccc(C(=O)O)cc4O)ccc3-c3ccccc3)ccc21 [Compound 10, 2″-Hydroxy-2′-(5,5,8,8-tetramethyl-5,6,7,8-tetrahydronaphthalen-2-yl) [1,1′,4′,1″]terphenyl-4″-carboxylic acid] | 1.66 (≈ 0.791 µg/mL) | RAR receptor agonist type | – | –
12 | CCCc1ccc(-c2ccccc2C=CC#Cc2ccc(C(=O)O)cc2)cc1 [Compound 21, 4-[4-(4′-Propylbiphenyl-2-yl)but-3-en-1-ynyl]benzoic acid] | – | RAR receptor antagonist type | 2.5 (≈ 0.916 µg/mL) | –
13 | COCCOCOc1cc2ccc(-c3ccc(C(=O)O)c(O)c3)cc2cc1C12CC3CC(CC(C3)C1)C2 [Compound 30, 4-[6-Methoxyethoxymethoxy-7-(1-adamantyl)-2-naphthyl] salicylic acid] | – | RAR receptor antagonist type | 3.33 (≈ 1.67 µg/mL) | –
14 | COCOc1cccc(C=CC#Cc2ccc(C(=O)O)cc2)c1-c1ccc(C)cc1 [Compound 2, 4-[4-(6-Methoxymethoxy-4′-methylbiphenyl-2-yl)but-3-en-1-ynyl]benzoic acid] | – | RAR receptor antagonist type | 1.04 (≈ 0.414 µg/mL) | MIC [1, 6]: 2.45 µM (≈ 0.976 µg/mL); MIC ([2]; Staphylococcus aureus): 16.6 µM (≈ 6.63 µg/mL)
15 | CC1(C)CCC(C)(C)c2cc(-c3cc(-c4ccc(C(=O)O)cc4)ccc3-c3ccccc3)c(O)cc21 [Compound 14, 2′-(3-Hydroxy-5,5,8,8-tetramethyl-5,6,7,8-tetrahydronaphthalen-2-yl) [1,1′,4′,1″]terphenyl-4″-carboxylic acid] | 2.08 (≈ 0.991 µg/mL) | RAR receptor agonist type | – | –
16 | COCOc1ccc(/C=C/C#Cc2ccc(C(=O)O)cc2)c(-c2ccc(C)cc2)c1 [Compound 31, (E)-4-[4-(5-Methoxymethoxy-4′ -methylbiphenyl-2-yl)but-3-en-1-ynyl]benzoic acid] | – | RAR receptor antagonist type | 3.33 (≈ 1.33 µg/mL) | –
17 | CC(C)(C)C1=CC(=CC#Cc2ccc(C(=O)O)cc2)C=C(C(C)(C)C)C1=O [Compound 5, 4-[3-(3,5-Di-tert-butyl-4-oxocyclohexa-2,5-dienylidene)prop-1-ynyl]benzoic acid] | – | RAR receptor agonist type | 1.25 (≈ 0.453 µg/mL) | MIC [1, 6]: 3.3 µM (≈ 1.2 µg/mL); MIC ([2]; Staphylococcus aureus): 13.2 µM (≈ 4.78 µg/mL)
18 | Cc1ccc(-c2ccccc2C=CC#Cc2ccc(C(=O)O)cc2)cc1 [Compound 37, 4-[4-(4′-Methylbiphenyl-2-yl)but-3-en-1-ynyl]benzoic acid] | – | RAR receptor antagonist type | 4.16 (≈ 1.41 µg/mL) | –
19 | COc1c(O)cc(-c2ccc3cc(C(=O)O)ccc3c2)cc1C12CC3CC(CC(C3)C1)C2 [Compound 1, 6-[3-(1-Adamantyl)-4-methoxy-5-hydroxyphenyl]-2-naphthoic acid] | – | RAR receptor agonist type | 1.04 (≈ 0.446 µg/mL) | MIC [1, 6]: 1.3 µM (≈ 0.557 µg/mL); MIC ([2]; Staphylococcus aureus): 12.5 µM (≈ 5.36 µg/mL)
20 | CC1(C)CCC(C)(C)c2cc3sc(-c4ccc(C(=O)O)cc4)cc3cc21 [Compound 15, 4-(5,5,8,8-Tetramethyl-5,6,7,8-tetrahydronaphtho-[2,3-b]thiophen-2-yl)benzoic acid] | – | RAR receptor agonist type | 2.5 (≈ 0.911 µg/mL) | –
